Patent US20230023726A1, “PHARMACEUTICAL COMPOSITION COMPRISING PEPTIDE THAT INHIBITS INTERACTION OF P53 AND FOXO4” (SUPADELIXIR INC., priority 2019, published 2023)

Key:
Format in all cases: cell-based, human
[1] = test system: interaction between p53 and FOXO4; assay: in situ PLA (proximity ligation assay) of the physical binding between p53 and FOXO4 in H2O2-treated HaCaT cells; settings: H2O2 200 μM, peptide 20 μM, 1 hour; for inhibition of the interaction between p53 and FOXO4 (PLA signals): in comparison with the control group
Experimental: After treating cells with the peptides of the present invention, the effects thereof on the physical binding between p53 and FOXO4 were evaluated through an in situ PLA (proximity ligation assay) method. HaCaT cells (human keratinocytes, CLS) were added at 4.5×10^4 cells per well, along with a DMEM containing 10% fetal bovine serum, to each well of a 24-well microplate and then cultured at 37° C. in a 5% CO2 incubator for 24 hours. H2O2 and the peptide solutions of Example 2 and H2O2 were added thereto so that the concentrations of H2O2 and each peptide in the medium were 200 μM and 20 μM respectively, followed by incubating for 1 hour under the same condition. As a control group, an untreated group (indicated by “control” in FIG. 1) and a group treated with H2O2 alone (indicated by “-” in FIG. 1) were used. The cells of each well were washed with PBS, fixed by treating with 2% formaldehyde for 15 minutes, and then treated with 0.1% TritonX-100 for 5 minutes to increase antibody permeability into the cells. Anti-p53 polyclonal antibody (Abcam, UK) and anti-FOXO4 polyclonal antibody (Santa Cruz, Calif., USA) were added thereto. After the PLA probe was added thereto using the in situ PLA kit (Sigma-Aldrich), hybridization, ligation, amplification and mounting steps were carried out according to the manufacturer's protocol. Each physical interaction between p53 and FOXO4 was quantified by measuring the luminescence signals (PLA signals) detected in each cell with a confocal laser microscope (Olympus fluoview FW1000; Olympus, Tokyo, Japan).

[2] = test system: interaction between p53 and FOXO4; assay: in situ PLA of p53-FOXO4 binding with ERK inhibitor (PD98059) and SHP2 inhibitor (NSC878777) in HaCaT cells; settings: H2O2 200 μM, 1 hour, FIG. 2
Experimental: After treating cells with the peptide of the present invention (the peptide of SEQ ID NO: 3), H2O2, a ERK inhibitor (PD98059), and a SHP2 inhibitor (NSC878777), the effects thereof on the physical binding between p53 and FOXO4 were evaluated through an in situ PLA (proximity ligation assay) method. HaCaT cells (human keratinocytes, CLS) were added at 4.5×10^4 cells per well, along with a DMEM containing 10% fetal bovine serum, to each well of a 24-well microplate and then cultured at 37° C. in a 5% CO2 incubator for 24 hours. The cells were treated with H2O2 (200 μM) and the peptide of SEQ ID NO: 3 (20 μM); or PD98059 (10 μM) or NSC878777 (10 μM) was additionally treated to the cells treated with H2O2 (200 μM) and the peptide of SEQ ID NO: 3 (20 μM), followed by incubating for 1 hour under the same condition. As a control group, an untreated group (indicated by “control” in FIG. 2) and a group treated with H2O2 alone were used. The cells of each well were washed with PBS, fixed by treating with 2% formaldehyde for 15 minutes, and then treated with 0.1% TritonX-100 for 5 minutes to increase antibody permeability into the cells. […] Each physical interaction between p53 and FOXO4 was quantified by measuring the luminescence signals (PLA signals) detected in each cell with a confocal laser microscope (Olympus fluoview FW1000; Olympus, Tokyo, Japan).

[3] = test system: senescent ARPE-19 cells (retinal pigment epithelial cells); assay: apoptosis of H2O2-induced senescent cells, X-Gal (Senescence β-Galactosidase) staining, number of remaining senescent cells; settings: ARPE-19, H2O2 25 μM 24 hours, then peptide 0.2 μM, 2 μM and 20 μM 24 hours; versus H2O2 alone ("-" group); FIGS. 3 and 4
Experimental: In order to evaluate the activity on the apoptosis of senescent cells by the treatment with the peptide of the present invention (the peptide of SEQ ID NO: 3) for 24 hours after inducing senescence by treating cells with H2O2, the X-Gal staining was carried out to measure the number of the remaining senescent cells. ARPE-19 cells (retinal pigment epithelial cells) were added at the density of 80% per well, along with a DMEM containing 10% fetal bovine serum, to each well of a 12-well microplate and then cultured at 37° C. in a 5% CO2 incubator for 24 hours. H2O2 was added thereto so that the concentration thereof in the medium was 25 μM, followed by incubating for 24 hours under the same condition. Thereafter, the cells in each well were washed with PBS and the peptide solution of Example 2 was added thereto so that the concentration of the peptide of SEQ ID NO: 3 was 0.2 μM, 2 μM, and 20 μM respectively, followed by incubating for 24 hours under the same condition. As a control group, an untreated group (indicated as “control” in FIGS. 3 and 4) and a group treated with H2O2 alone (indicated by “-” in FIGS. 3 and 4) were used. […] The bluish green color development detected in the senescence-induced cells was measured with a phase-contrast microscope (Olympus, Tokyo, Japan), and each number of senescent cells was quantified.

Row | Substance | inhibition of the interaction between p53 and FOXO4 (PLA signals) ([1]; FIG. 1) | extent of inhibition of the interaction between p53 and FOXO4 in comparison with the control group (PLA signals) ([1]; FIG. 1) | further results
1 | Leu-Ala-Asp (LAD) [Pep 4] | remarkably inhibited | – | inhibition of the interaction between p53 and FOXO4 (PLA signals) ([1]; FIG. 1, listed as SEQ ID NO: 4): particularly excellent activity
2 | Leu-Cys-Asp (LCD) [Pep 13] | remarkably inhibited | – | inhibition of the interaction between p53 and FOXO4 (PLA signals) ([1]; FIG. 1, listed as SEQ ID NO: 13): particularly excellent activity
3 | Leu-Gln-Asp (LQD) [Pep 5] | remarkably inhibited | – | inhibition of the interaction between p53 and FOXO4 (PLA signals) ([1]; FIG. 1, listed as SEQ ID NO: 5): particularly excellent activity
4 | Leu-Glu-Asp (LED) [Pep 1] | remarkably inhibited | two or more times | inhibition of the interaction between p53 and FOXO4 (PLA signals) ([1]; FIG. 1, listed as SEQ ID NO: 1): particularly excellent activity
5 | Leu-Gly-Asp (LGD) [Pep 3] | remarkably inhibited | – | inhibition of the interaction between p53 and FOXO4 (PLA signals) ([1]; FIG. 1, listed as SEQ ID NO: 3): particularly excellent activity; dependence of the peptide's inhibitory signal on ERK and SHP2 ([2]; peptide 20 μM plus PD98059 10 μM or NSC878777 10 μM): dependent on ERK and SHP2 activation; inhibition of the interaction between p53 and FOXO4 (PLA signals) ([2]; peptide 20 μM): significantly inhibited; induction of apoptosis of senescent cells (number of remaining senescent cells) [3]: significantly induced the apoptosis of senescent cells
6 | Leu-His-Asp (LHD) [Pep 14] | remarkably inhibited | two or more times | inhibition of the interaction between p53 and FOXO4 (PLA signals) ([1]; FIG. 1, listed as SEQ ID NO: 14): particularly excellent activity
7 | Leu-Ile-Asp (LID) [Pep 15] | remarkably inhibited | two or more times | inhibition of the interaction between p53 and FOXO4 (PLA signals) ([1]; FIG. 1, listed as SEQ ID NO: 15): particularly excellent activity
8 | Leu-Leu-Asp (LLD) [Pep 8] | remarkably inhibited | – | inhibition of the interaction between p53 and FOXO4 (PLA signals) ([1]; FIG. 1, listed as SEQ ID NO: 8): particularly excellent activity
9 | Leu-Lys-Asp (LKD) [Pep 7] | remarkably inhibited | – | inhibition of the interaction between p53 and FOXO4 (PLA signals) ([1]; FIG. 1, listed as SEQ ID NO: 7): particularly excellent activity
10 | Leu-Phe-Asp (LFD) [Pep 11] | remarkably inhibited | two or more times | inhibition of the interaction between p53 and FOXO4 (PLA signals) ([1]; FIG. 1, listed as SEQ ID NO: 11): particularly excellent activity
11 | Leu-Pro-Asp (LPD) [Pep 17] | remarkably inhibited | two or more times | inhibition of the interaction between p53 and FOXO4 (PLA signals) ([1]; FIG. 1, listed as SEQ ID NO: 17): particularly excellent activity
12 | Leu-Thr-Asp (LTD) [Pep 18] | remarkably inhibited | two or more times | inhibition of the interaction between p53 and FOXO4 (PLA signals) ([1]; FIG. 1, listed as SEQ ID NO: 18): particularly excellent activity
13 | Leu-Trp-Asp (LWD) [Pep 19] | remarkably inhibited | – | inhibition of the interaction between p53 and FOXO4 (PLA signals) ([1]; FIG. 1, listed as SEQ ID NO: 19): particularly excellent activity
14 | Leu-Tyr-Asp (LYD) [Pep 9] | remarkably inhibited | two or more times | inhibition of the interaction between p53 and FOXO4 (PLA signals) ([1]; FIG. 1, listed as SEQ ID NO: 9): particularly excellent activity
15 | Leu-Val-Asp (LVD) [Pep 20] | remarkably inhibited | two or more times | inhibition of the interaction between p53 and FOXO4 (PLA signals) ([1]; FIG. 1, listed as SEQ ID NO: 20): particularly excellent activity
